Biological target: native CB1 receptors (Rattus norvegicus, UniProt P20272)
Assay: CB1 receptor rat binding assay ([3H]SR141716A, rat brain membranes)
Conditions: rat brain membranes, [3H]SR141716A; for Ki: read-out: Binding rat pKi (converted)

Chain of native CB1 receptors (P20272 whole entry): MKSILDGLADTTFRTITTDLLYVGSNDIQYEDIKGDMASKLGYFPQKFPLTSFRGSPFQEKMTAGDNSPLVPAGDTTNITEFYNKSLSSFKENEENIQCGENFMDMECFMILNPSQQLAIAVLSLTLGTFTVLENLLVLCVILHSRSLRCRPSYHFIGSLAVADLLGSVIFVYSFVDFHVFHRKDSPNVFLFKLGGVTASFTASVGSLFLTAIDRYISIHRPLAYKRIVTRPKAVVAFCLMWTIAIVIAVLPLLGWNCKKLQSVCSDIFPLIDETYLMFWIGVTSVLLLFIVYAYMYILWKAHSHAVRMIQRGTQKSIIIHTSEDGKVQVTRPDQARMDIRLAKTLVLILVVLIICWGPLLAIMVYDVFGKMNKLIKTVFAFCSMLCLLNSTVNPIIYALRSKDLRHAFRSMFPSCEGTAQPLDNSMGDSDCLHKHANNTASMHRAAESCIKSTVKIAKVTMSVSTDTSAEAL

| SMILES | Ki | Binding rat Inh % |
| --- | --- | --- |
| O=C(NCc1ccccc1Br)c1ccc2c(c1)N=C(N1CCCCC1)c1ccccc1S2 [drawing 1275] | 20 nM | – |
| Cc1ccsc1C1=Nc2cc(C(=O)NCc3ccco3)ccc2Sc2ccccc21 [drawing 1277] | 20 nM | 85% |
| O=C(NCCc1ccc(Cl)cc1)c1ccc2c(c1)N=C(C1CCCCC1)c1ccccc1S2 [drawing 1280] | 2 nM | – |
| COc1ccc(C2=Nc3cc(C(=O)NC4CCCCC4)ccc3Sc3ccccc32)cc1 [drawing 1282] | 2 nM | 91% |
| CCCC1=Nc2cc(C(=O)NC3CCCC(C)C3C)ccc2Sc2ccccc21 (centres unmarked) [drawing 1284] | 20 nM | – |
| CCCC1=Nc2cc(C(=O)NCCc3ccc(Cl)cc3)ccc2Sc2ccccc21 [drawing 1285] | 20 nM | – |
| CCCNC(=O)c1ccc2c(c1)N=C(c1cccc(F)c1)c1ccccc1S2 [drawing 1286] | 20 nM | 84% |
| CCCC1=Nc2cc(C(=O)NCCN(CC)c3ccccc3)ccc2Sc2ccccc21 [drawing 1292] | 20 nM | – |
| CCN(CCNC(=O)c1ccc2c(c1)N=C(C1CCCCC1)c1ccccc1S2)c1ccccc1 [drawing 1296] | 2.51 nM | – |
| CCN(CCNC(=O)c1ccc2c(c1)N=C(c1cccc(Cl)c1)c1ccccc1S2)c1ccccc1 [drawing 1298] | 2.51 nM | – |
| O=C(NCc1ccc(F)cc1)c1ccc2c(c1)N=C(c1ccc(Cl)cc1)c1ccccc1[S+]2[O-] (centres unmarked) [drawing 1301] | 20 nM | – |
| CCN(CCNC(=O)c1ccc2c(c1)N=C(c1ccccc1F)c1ccccc1S2)c1ccccc1 [drawing 1302] | 20 nM | – |
| CC(C)CNC(=O)c1ccc2c(c1)N=C(c1ccsc1)c1ccccc1S2 [drawing 1303] | 2.51 nM | 90% |
| O=C(NN1CCCCC1)c1ccc2c(c1)N=C(c1ccc(Cl)c(Cl)c1)c1ccccc1S2 [drawing 1305] | 2.51 nM | 96% |
| O=C(NC1CCCCC1)c1ccc2c(c1)N=C(c1cccc(F)c1)c1ccccc1S2 [drawing 1306] | 3.16 nM | 84% |
| CC(C)CNC(=O)c1ccc2c(c1)N=C(c1ccccc1F)c1ccccc1S2 [drawing 1307] | 20 nM | 90% |
| Cc1cccc(C2=Nc3cc(C(=O)NCCC(F)(F)F)ccc3Sc3ccccc32)n1 [drawing 1308] | 20 nM | 91% |
| O=C(NC1CCCC1)c1ccc2c(c1)N=C(c1cccc(F)c1)c1ccccc1S2 [drawing 1310] | 25.1 nM | 82% |
| CCCCNC(=O)c1ccc2c(c1)N=C(c1ccc(Cl)c(Cl)c1)c1ccccc1S2 [drawing 1311] | 3.16 nM | 94% |
| Cc1csc(CNC(=O)c2ccc3c(c2)N=C(c2ccsc2)c2ccccc2S3)c1 [drawing 1313] | 3.16 nM | 106% |
| CC(C)CNC(=O)c1ccc2c(c1)N=C(c1ccc(Cl)cc1)c1ccccc1S2 [drawing 1314] | 3.16 nM | 92% |
| O=C(NCc1cccc(Cl)c1)c1ccc2c(c1)N=C(N1CCCCC1)c1ccccc1[S+]2[O-] (centres unmarked) [drawing 1315] | 25.1 nM | – |

| SMILES | Ki | Binding rat Inh % |
| --- | --- | --- |
| O=C(NCc1ccc(F)cc1)c1ccc2c(c1)N=C(c1ccc(Cl)cc1)c1ccccc1S2(=O)=O [drawing 1316] | 25.1 nM | – |
| CCCCNC(=O)c1ccc2c(c1)N=C(c1ccc(Cl)cn1)c1ccc(F)cc1S2 [drawing 1317] | 25.1 nM | 86% |
| CC(C)CNC(=O)c1ccc2c(c1)N=C(c1ccc(F)cc1)c1ccccc1S2 [drawing 1319] | 3.16 nM | 87% |
| Cc1ccc(CNC(=O)c2ccc3c(c2)N=C(c2ccc(Cl)c(Cl)c2)c2ccccc2S3)o1 [drawing 1320] | 3.16 nM | 96% |
| O=C(NN1CCCCC1)c1ccc2c(c1)N=C(c1ccc(F)c(Cl)c1)c1ccccc1S2 [drawing 1321] | 3.16 nM | 100% |
| O=C(NCCc1ccccc1)c1ccc2c(c1)N=C(c1cccc(Cl)c1)c1ccccc1S2 [drawing 1322] | 3.16 nM | – |
| CCOCCNC(=O)c1ccc2c(c1)N=C(c1cccc(Br)c1)c1ccccc1S2 [drawing 1323] | 25.1 nM | 76% |
| CCCCNC(=O)c1ccc2c(c1)N=C(N1CCCCC1)c1ccccc1S2 [drawing 1325] | 25.1 nM | – |
| O=C(NCc1ccc(F)cc1)c1ccc2c(c1)N=C(C1CCCCC1)c1ccccc1S2(=O)=O [drawing 1326] | 25.1 nM | – |
| CC(CNC(=O)c1ccc2c(c1)N=C(C1CCCCC1)c1ccccc1S2)c1ccccc1 (centres unmarked) [drawing 1329] | 3.16 nM | – |
| CC(C)CCNC(=O)c1ccc2c(c1)N=C(c1ccc(F)cc1)c1ccccc1S2 [drawing 1330] | 3.98 nM | 91% |
| O=C(NCCc1cccnc1)c1ccc2c(c1)N=C(c1cccc(F)c1)c1ccccc1S2 [drawing 1333] | 25.1 nM | 94% |
| O=C(NCc1ccc(F)cc1)c1ccc2c(c1)N=C(C1CCCCC1)c1ccccc1S2 [drawing 1336] | 3.98 nM | – |
| O=C(NCCC(F)(F)F)c1ccc2c(c1)N=C(c1cccc(F)c1)c1ccccc1S2 [drawing 1337] | 3.98 nM | 108% |
| O=C(NCc1cccc(Cl)c1)c1ccc2c(c1)N=C(C1CCCCC1)c1ccccc1S2 [drawing 1338] | 3.98 nM | – |
| O=C(NCc1ccccc1Cl)c1ccc2c(c1)N=C(c1ccc(Cl)cc1)c1ccccc1S2 [drawing 1341] | 25.1 nM | – |
| O=C(NN1CCCCCC1)c1ccc2c(c1)N=C(c1ccccc1F)c1ccccc1S2 [drawing 1342] | 25.1 nM | 101% |
| O=C(NCc1ccccc1)c1ccc2c(c1)N=C(C1CCCCC1)c1ccccc1S2 [drawing 1343] | 3.98 nM | – |
| Cc1ccsc1C1=Nc2cc(C(=O)NCc3cccs3)ccc2Sc2ccccc21 [drawing 1344] | 3.98 nM | 99% |
| O=C(NCCc1ccc(Cl)cc1)c1ccc2c(c1)N=C(N1CCCCC1)c1ccccc1S2 [drawing 1345] | 3.98 nM | – |
| Cc1ccc(CNC(=O)c2ccc3c(c2)N=C(c2ccsc2)c2ccccc2S3)o1 [drawing 1346] | 3.98 nM | 89% |
| CCCCNC(=O)c1ccc2c(c1)N=C(c1ccccc1F)c1ccccc1S2 [drawing 1348] | 25.1 nM | – |

The next lines start with the values.

| Ki | Binding rat Inh % | SMILES |
| --- | --- | --- |
| 20 nM | 98% | CCCNC(=O)c1ccc2c(c1)N=C(c1ccc(Cl)cc1F)c1ccccc1S2 [drawing 1276] |
| 20 nM | 80% | O=C(NCc1cccnc1)c1ccc2c(c1)N=C(c1cccc(Br)c1)c1ccccc1S2 [drawing 1278] |
| 2 nM | 94% | O=C(NCc1cccs1)c1ccc2c(c1)N=C(c1ccc(Cl)cc1)c1ccccc1S2 [drawing 1279] |
| 2 nM | – | O=C(NCCc1ccc(Cl)cc1)c1ccc2c(c1)N=C(c1cccc(Cl)c1)c1ccccc1S2 [drawing 1281] |
| 20 nM | – | O=C(NCCc1cccc(Cl)c1)c1ccc2c(c1)N=C(c1ccc(Cl)cc1)c1ccccc1S2 [drawing 1283] |
| 2 nM | – | O=C(NCc1ccc(F)cc1)c1ccc2c(c1)N=C(c1ccc(Cl)cc1)c1ccccc1S2 [drawing 1287] |
| 2 nM | – | CC(CNC(=O)c1ccc2c(c1)N=C(c1ccc(Cl)cc1)c1ccccc1S2)c1ccccc1 (centres unmarked) [drawing 1288] |
| 20 nM | – | O=C(NCc1ccccc1Cl)c1ccc2c(c1)N=C(c1ccc(F)cc1)c1ccccc1S2 [drawing 1291] |
| 20 nM | 97% | O=C(NCCc1cccnc1)c1ccc2c(c1)N=C(c1cccc(Cl)c1)c1ccccc1S2 [drawing 1293] |
| 20 nM | 77% | O=C(NCc1ccncc1)c1ccc2c(c1)N=C(c1ccc(Cl)cc1)c1ccccc1S2 [drawing 1294] |
| 2.51 nM | – | O=C(NCCc1ccccc1)c1ccc2c(c1)N=C(c1ccc(Cl)cc1)c1ccccc1S2 [drawing 1295] |
| 2.51 nM | – | CCN(CCNC(=O)c1ccc2c(c1)N=C(c1ccc(F)cc1)c1ccccc1S2)c1ccccc1 [drawing 1297] |
| 20 nM | – | O=C(NCc1ccc(F)cc1)c1ccc2c(c1)N=C(c1ccccc1F)c1ccccc1S2 [drawing 1299] |
| 20 nM | – | CCCCNC(=O)c1ccc2c(c1)N=C(c1ccccc1)c1ccccc1S2 [drawing 1300] |
| 2.51 nM | – | CC(CNC(=O)c1ccc2c(c1)N=C(c1cccc(Cl)c1)c1ccccc1S2)c1ccccc1 (centres unmarked) [drawing 1304] |
| 25.1 nM | 73% | O=C(NCc1cccnc1)c1ccc2c(c1)N=C(c1ccccc1F)c1ccccc1S2 [drawing 1318] |
| 25.1 nM | – | O=C(NCc1ccccc1Cl)c1ccc2c(c1)N=C(c1ccccc1)c1ccccc1S2 [drawing 1324] |
| 3.16 nM | – | O=C(NCCCc1ccccc1)c1ccc2c(c1)N=C(c1cccc(Cl)c1)c1ccccc1S2 [drawing 1327] |
| 3.16 nM | – | O=C(NCc1ccccc1)c1ccc2c(c1)N=C(c1cccc(Cl)c1)c1ccccc1S2 [drawing 1328] |
| 25.1 nM | – | O=C(NCCc1cccc(Cl)c1)c1ccc2c(c1)N=C(c1cccc(Cl)c1)c1ccccc1S2 [drawing 1331] |
| 25.1 nM | – | O=C(NCCc1ccccc1)c1ccc2c(c1)N=C(c1ccccc1)c1ccccc1S2 [drawing 1332] |
| 25.1 nM | 103% | O=C(NCCc1cccnc1)c1ccc2c(c1)N=C(c1ccc(Cl)cc1)c1ccccc1S2 [drawing 1334] |
| 3.98 nM | – | O=C(NCCc1ccccc1)c1ccc2c(c1)N=C(c1ccc(F)cc1)c1ccccc1S2 [drawing 1335] |
| 25.1 nM | 96% | O=C(NCCc1ccncc1)c1ccc2c(c1)N=C(c1ccc(Cl)cc1)c1ccccc1S2 [drawing 1339] |
| 25.1 nM | 60% | O=C(NCCc1ccccn1)c1ccc2c(c1)N=C(c1ccc(Cl)cc1)c1ccccc1S2 [drawing 1340] |
| 31.6 nM | 86% | CC(C)CCNC(=O)c1ccc2c(c1)N=C(c1ccccn1)c1ccccc1S2 [drawing 1349] |
| 31.6 nM | 90% | CCOC(=O)c1ccc(C2=Nc3cc(C(=O)NCc4cccnc4)ccc3Sc3ccccc32)cc1 [drawing 1350] |
| 3.98 nM | 81% | COc1ccc(C2=Nc3cc(C(=O)NCCC(C)C)ccc3Sc3ccccc32)cc1 [drawing 1351] |
